Earlier results as cited in US11344598B2, “Herbal nanoformulations for treating psoriasis and other skin conditions” (Sirbal Ltd., priority 2016, dated 2022).

Conditions: in words

solubility in water: insoluble in water
SMILES: CCC(=O)O[C@]1(C(=O)CCl)[C@@H](C)C[C@H]2[C@@H]3CCC4=CC(=O)C=C[C@]4(C)[C@@]3(F)[C@@H](O)C[C@@]21C [Clobetasol propionate, clobetasol propionate]
